Test results from US12558428B2, “Heterobifunctional compounds and their use in treating disease” (Halda Therapeutics OpCo, Inc., priority 2024, dated 2026).
Read-outs that look alike come from different tables or passages of the source.

Key:
Assay type in all cases: cell-based
[1] = test system: T-Rex 293 cells lacking increased expression of estrogen receptor alpha protein; assay: Cellular growth inhibition assay, T-Rex 293 cells, (−) doxycycline; details: T-REx-293, 72 h, 72 hours
Procedure: (§1) Exemplary compounds were tested for the ability to inhibit the proliferation of the following types of cells: (i) a T-Rex 293 cell line having increased expression of estrogen receptor alpha protein from exposure to doxycycline and (ii) a T-Rex 293 cell line lacking increased expression of estrogen receptor alpha protein.
(§2) The following types of cells were prepared for this experiment: (i) a T-Rex 293 cell line having increased expression of estrogen receptor alpha protein from exposure to doxycycline and (ii) a T-Rex 293 cell line lacking increased expression of estrogen receptor alpha protein. The ability of the test compounds to inhibit proliferation of the foregoing cell types was evaluated according to the procedures set forth below.
(§3) The doxycycline-inducible estrogen receptor alpha protein expressing cell line was established using the following protocol: T-Rex 293 cells were purchased from Invitrogen (Cat #R71007) and transfected using Lipofectamine 2000 with the wild-type estrogen receptor alpha protein sequence cloned into the pcDNA4/TO vector. Transfected cells were selected using 400 μg/mL Zeocin (Invitrogen Cat #R25001). Following selection, single clones were raised and maintained in Dulbecco's Modified Eagle Medium (DMEM) supplemented with 10% w/w Tetracycline-free fetal bovine serum (FBS) and 250 μg/mL Zeocin. Clones were analyzed for expression of estrogen receptor alpha protein in the presence and absence of 3 ng/mL doxycycline (Sigma Cat #D9891), and a single doxycycline-inducible clone (hereinafter “SC”) was selected for use in downstream assays.
(§4) The SC cells were seeded on poly-D-lysine coated, black clear-bottom 384-well plates at 2500/well, in 25 μL Phenol Red Free Dulbecco's Modified Eagle Medium (DMEM) supplemented with 10% w/w charcoal-dextran treated fetal bovine serum (FBS) and 1% w/w pen-strep, with or without 3 ng/mL doxycycline. Pen-Strep is a commercially available mixture of penicillin G and streptomycin, which is used in mammalian cell culture media to prevent bacterial contamination. Phenol Red Free Dulbecco's Modified Eagle Medium (DMEM) supplemented with 10% w/w charcoal-dextran treated fetal bovine serum (FBS) and 1% w/w pen-strep, with or without 3 ng/mL doxycycline is herein referred to as Treatment Medium. Following seeding of cells in the plates, the plates were spun at 300×g for 30 seconds, then equilibrated to room temperature for 30 minutes, and then deposited in a humidified tissue culture incubator maintained at 37° C. with 5% CO2.
(§5) At 24 hours after seeding of the cells, dilutions of test compound were prepared in DMSO and dissolved in Treatment Medium, to achieve a final DMSO concentration of 0.5% w/w, thereby providing the Test Compound Solution. A 25 μL aliquot of the Test Compound Solution was added to cells in the well plates. An equal volume of a solution containing DMSO and Treatment Medium was used as a negative control. Following treatment of cells with Test Compound Solution or said equal volume of a solution containing DMSO and Treatment Medium, the plates were spun at 300×g for 30 seconds, and then left in an incubator for 72 hours.
(§6) At the end of the treatment duration, cell viability was quantified with CellTiter-Glo 2.0 reagent (Promega Cat #G9243). For this purpose, plates were equilibrated to room temperature for 30 minutes, and then 25 μL of CellTiter-Glo 2.0 reagent was added to cells in the plate wells. Plates were then agitated on a shaker for two minutes at 500 rpm and subsequently incubated at room temperature for 10 minutes. Following incubation, the plates were spun at 3000×g for 30 seconds, then sealed with an optical adhesive cover, and luminescence readings were measured with an EnVision Plate Reader (Perkin Elmer).
(§7) Data was normalized using zero luminescence for baseline. […]

[2] = test system: T-Rex 293 cells having increased expression of estrogen receptor alpha protein; assay: Cellular growth inhibition assay, T-Rex 293 cells, (+) doxycycline; details: T-REx-293, 72 h, 72 hours
Procedure: as §1, §2, §3, §4, §5, §6, §7

[3] = test system: MCF7 cells (ATCC #HTB-22); assay: Cellular growth inhibition assay, MCF7 cells purchased from ATCC; details: Homo sapiens, MCF7, 144 h, Table 8-A; MCF7 cells purchased from ATCC; six days; CellTiter-Glo; read-out: GI50
Procedure: Exemplary compounds were tested for the ability to inhibit the proliferation of MCF7 cells.
MCF7 cells (ATCC #HTB-22 or ECACC #86012803) were cultured in RPMI 1640 medium supplemented with 10% heat-inactivated fetal bovine serum, 1% pen-strep, and 0.2 U/ml insulin. Cells were seeded in 25 μL of RPMI 1640 medium supplemented with 10% heat-inactivated fetal bovine serum, 1% pen-strep, 0.2 U/ml insulin in poly-D-lysine treated, black clear-bottom 384-well plates at 225 cells/well for MCF7 cells purchased from ECACC or 1,500 cells/well for MCF7 cells purchased from ATCC. Following seeding, plates were spun at 300×g for 30 seconds and cultured at 37° C. with 5% CO2 in a humidified tissue culture incubator.
At 24 hours after seeding, compounds were titrated in 100% DMSO and diluted in RPMI 1640 medium supplemented with 10% heat-inactivate fetal bovine serum, 1% pen-strep, and 0.2 U/ml insulin. A 25 μL aliquot of the compound/media mixture was added to cells, bringing the total volume in each well to 50 μL. An equal volume of DMSO without compound was used as a negative control. After treatment, plates were spun at 300×g for 30 seconds, then cultured at 37° C. with 5% CO2 for six days in a humidified tissue culture incubator.
On Day 6 of treatment, cell viability was quantified with CellTiter-Glo 2.0 reagent (Promega). Plates were equilibrated to room temperature for 30 minutes, then 25 μL of CellTiter-Glo 2.0 reagent was added to cells, bringing the total volume in each well to 75 μL. After reagent was added, plates were mixed on a shaker for two minutes at 500 rpm and then incubated at room temperature for 10 minutes. Following incubation, plates were spun at 3,000×g for 30 seconds, sealed with an optical adhesive cover, and luminescence readings were measured with an EnVision Plate Reader.
Data was normalized to 0 luminescence for baseline. A four-parameter, non-linear regression curve fit was applied to dose-response data in GraphPad Prism data analysis software to determine the half maximal growth inhibitory concentration (GI50) for each compound.

[4] = T-Rex 293 cells without doxycycline, CellTiter-Glo 2.0, read-out: (−) Dox TRex ERa (GI50)
[5] = T-Rex 293 cells with doxycycline-induced ERα expression, CellTiter-Glo 2.0, read-out: (+) Dox TRex ERa (GI50)
[6] = Table 7-A, T-Rex 293 cells without doxycycline (lacking increased ERα expression), CellTiter-Glo, read-out: (−) Dox GI50
[7] = Table 7-A, T-Rex 293 cells with doxycycline (increased ERα expression), CellTiter-Glo, read-out: (+) Dox GI50

Row | Compound | GI50 [3] | GI50 [1, 4] | GI50 [2, 5] | GI50 [1, 6] | GI50 [2, 7]
1 | Cc1sc2c(c1C)C(c1ccc(OCCOCCCN3CC[C@H](Oc4ccc(C5=C(c6ccc(Cl)cc6Cl)CCCc6cc(C(=O)O)ccc65)cc4)C3)cc1)=N[C@@H](C)c1nnc(C)n1-2 [I-32, 8-(2,4-dichlorophenyl)-9-(4-(((S)-1-(3-(2-(4-((S)-2,3,6,9-tetramethyl-6H-thieno[3,2-f][1,2,4]triazolo[4,3-a][1,4]diazepin-4-yl)phenoxy)ethoxy)propyl)pyrrolidin-3-yl)oxy)phenyl)-6,7-dihydro-5H-benzo[7]annulene-3-carboxylic acid] | 50 to 500 nM | 500 to 2500 nM | < 50 nM |  | 
2 | CCN(Cc1ccc(CCN2CC[C@@H](OCCOCCOc3ccc(C4=N[C@@H](C)c5nnc(C)n5-c5sc(C)c(C)c54)cc3)C2)cc1)c1cc(OC)ccc1C1CCc2cc(O)ccc2C1 (stereo partly drawn) [I-34a, (R)-6-(2-(ethyl(4-(2-((R)-3-(2-(2-(4-((S)-2,3,6,9-tetramethyl-6H-thieno[3,2-f][1,2,4]triazolo[4,3-a][1,4]diazepin-4-yl)phenoxy)ethoxy)ethoxy)pyrrolidin-1-yl)ethyl)benzyl)amino)-4-methoxyphenyl)-5,6,7,8-tetrahydronaphthalen-2-ol] | 50 to 500 nM |  |  | 500 to 2500 nM | 50 to 500 nM
3 | CC1=C(c2c(F)cc(F)cc2F)[C@H](c2ccc(N3CC(CN4CCN(CC5CN(c6ccc(C7=N[C@@H](C)c8nnc(C)n8-c8sc(C)c(C)c87)cc6)C5)CC4)C3)cc2)Oc2ccc(O)cc21 [V-35] | < 50 nM |  |  | 50 to 500 nM | < 50 nM
4 | COc1ccc(-c2sc3cc(OC)ccc3c2C(=O)c2ccc(OCCN3CCC(CCCCOc4ccc(C5=N[C@@H](Cc6ncco6)c6nnc(C)n6-c6sc(C)c(C)c65)cc4)CC3)cc2)cc1 [V-1] | 50 to 500 nM |  |  | 50 to 500 nM | 50 to 500 nM
5 | Cc1sc2c(c1C)C(c1ccc(OC3CC4(CCN(c5ccc(C(=O)c6c(-c7ccc(O)cc7)sc7cc(O)ccc67)cc5)CC4)C3)cc1)=N[C@@H](Cc1ncco1)c1nnc(C)n1-2 (single isomer, unassigned) [I-26, (6-hydroxy-2-(4-hydroxyphenyl)benzo[b]thiophen-3-yl)(4-(2-(4-(2,3,9-trimethyl-6-(oxazol-2-ylmethyl)-6H-thieno[3,2-f][1,2,4]triazolo[4,3-a][1,4]diazepin-4-yl)phenoxy)-7-azaspiro[3.5]nonan-7-yl)phenyl)methanone] | < 50 nM | 50 to 500 nM | < 50 nM |  | 
6 | Cc1sc2c(c1C)C(c1ccc(N3CCC(O)(CN4CCN(c5ccc(C6=C(c7ccccc7)CCCc7cc(C(=O)O)ccc76)cc5F)CC4)CC3)cc1)=N[C@@H](C)c1nnc(C)n1-2 [IV-33] | < 50 nM |  |  | 500 to 2500 nM | < 50 nM
7 | Cc1sc2c(c1C)C(c1ccc(N3CC(CN4CCN(c5ccc(C6=C(c7ccc(Cl)cc7Cl)CCCc7cc(C(=O)O)ccc76)cc5)CC4)C3)cc1)=N[C@@H](C)c1nnc(C)n1-2 [IV-10] | 50 to 500 nM |  |  | 500 to 2500 nM | 50 to 500 nM
8 | CC1=C(c2c(F)cc(F)cc2F)C(c2ccc(N3CCN(CC4CN(c5ccc(C6=N[C@@H](C)c7nnc(C)n7-c7sc(C)c(C)c76)cc5)C4)CC3)cc2)Oc2ccc(O)cc21 (stereo partly drawn) [V-21] | < 50 nM |  |  | 50 to 500 nM | < 50 nM

More lines, main results first:

Row | GI50 [3] | Compound | GI50 [1, 4] | GI50 [2, 5] | GI50 [1, 6] | GI50 [2, 7]
9 | 50 to 500 nM | COC1(CN2CCC(c3ccc([C@@H]4c5ccc(O)cc5CC[C@@H]4c4ccccc4)cc3)CC2)CCN(c2ccc(C3=N[C@@H](C)c4nnc(C)n4-c4sc(C)c(C)c43)cc2)CC1 [III-130] |  |  | 500 to 2500 nM | 50 to 500 nM
10 | < 50 nM | Cc1sc2c(c1C)C(c1ccc(N3CC(CC4(O)CCN(CC5CN(c6ccc([C@@H]7c8ccc(O)cc8CC[C@@H]7c7ccc(F)cc7)cc6)C5)CC4)C3)cc1)=N[C@@H](C)c1nnc(C)n1-2 [III-239] |  |  | 50 to 500 nM | < 50 nM
11 | 50 to 500 nM | Cc1sc2c(c1C)C(c1ccc(N3CC(CN4CCC(CC5CN(c6ccc([C@@H]7c8ccc(O)cc8CC[C@@H]7c7ccccc7)cc6)C5)CC4)C3)cc1)=N[C@@H](C)c1nnc(C)n1-2 [III-133] |  |  | 50 to 500 nM | < 50 nM
12 | 50 to 500 nM | Cc1sc2c(c1C)C(c1ccc(N3CCC(C#N)(CN4CCN(c5ccc([C@@H]6c7ccc(O)cc7CC[C@@H]6c6ccccc6)cc5)CC4)CC3)cc1)=N[C@@H](C)c1nnc(C)n1-2 [III-150] |  |  | 500 to 2500 nM | < 50 nM
13 | 50 to 500 nM | Cc1sc2c(c1C)C(c1ccc(N3CCN(CC4CCN(c5ncc([C@H]6c7ccc(O)cc7CC[C@H]6c6ccccc6)cn5)CC4)CC3)cc1)=N[C@@H](Cc1ncco1)c1nnc(C)n1-2 [III-127] |  |  | 500 to 2500 nM | 50 to 500 nM
14 | > 2500 nM | Cc1sc2c(c1C)C(c1ccc(C#CC3CC4(CCN(c5ccc([C@H]6c7ccc(O)cc7CC[C@H]6c6ccccc6)cc5)CC4)C3)cc1)=N[C@H](Cc1ncco1)c1nnc(C)n1-2 [III-20] |  |  | > 2500 nM | > 2500 nM
15 | < 50 nM | Cc1sc2c(c1C)C(c1ccc(N3CC4(CC(CN5CCN(c6ccc([C@@H]7c8ccc(O)cc8CC[C@@H]7c7ccc(F)cc7)cc6)CC5)C4)C3)cc1)=N[C@@H](C)c1nnc(C)n1-2 [III-263] |  |  | 500 to 2500 nM | < 50 nM
16 | 50 to 500 nM | Cc1sc2c(c1C)C(c1ccc(C34COC(CN5CCN(c6ccc([C@H]7c8ccc(O)cc8CC[C@H]7c7ccccc7)cc6)CC5)(C3)C4)cc1)=N[C@@H](C)c1nnc(C)n1-2 [III-83] |  |  | 500 to 2500 nM | 50 to 500 nM
